How the values were obtained:
[1] = test system: GR (glyphosate resistant) palmer amaranth (AMAPA); experiment: Greenhouse pre-emergent efficacy, Example 3B; format: in vivo, Amaranthus palmeri
From the text: (§1) ACC, DFF and MRB were used as the commercial products Warrant®, Brodal® and TriCor® DF as described in Example 3A above. Further, also a DFF+MRB pre-mix (200 g/L DFF+400 g/L MRB, suspension concentrate) was used. For GR (glyphosate resistant) palmer amaranth (AMAPA), at 1X rate, all 2- and 3-way treatments provided >95% control. Except for the DFF+MRB pre-mix, these treatments also provided >95% control of GR AMAPA at ½X rate as well. No single active ingredient provided acceptable control of GR AMAPA in this trial.

[2] = test system: proso millet (PANMI); experiment: Greenhouse pre-emergent efficacy, Example 3B; format: in vivo, Panicum miliaceum; conditions: both rates tested
From the text: as §1

[3] = test system: glyphosate resistant Canola (Roundup Ready® Canola); experiment: Greenhouse post-emergent efficacy in glyphosate resistant Canola, Example 3C; format: in vivo; conditions: text statement on Table 3C
Method: ACC and DFF were used as the commercial products Warrant® and Brodal® as described in Example 3A above. The seeds of glyphosate resistant Canola (Roundup Ready® Canola) were planted in 3.5-inches (8.89 cm) square plastic pots filled with a potting media of 75% silt loam and 25% Redi-earth (Sun Gro, Bellevue, WA). The temperature conditions were 22° C. day and 17° C. night with 14 hours of supplemental light (approximately 600 microeinsteins). The pots are placed in a controlled-environment greenhouse equipped with sub-irrigation. The treatments applications were applied to the plants with a track sprayer generally using a TTI110015 nozzle spray nozzle. The spray nozzle was 16 inches (40.64 cm) above the top of the plants and a spray volume rate of about 140 L/ha was applied. The plants were sprayed when canola was at the V3-V4 growth stage. Visual ratings (% control) were collected at 14 DAT.

SMILES | control of GR AMAPA, in words [1] | control of proso millet (PANMI), in words [2] | herbicidal activity on glyphosate resistant Canola, in words [3]
CCOCN(C(=O)CCl)c1c(C)cccc1CC [ACC, 2-chloro-N-(ethoxymethyl)-N-(2-ethyl-6-methylphenyl)acetamide] | weak control | weak control | very low herbicidal activity
O=C(Nc1ccc(F)cc1F)c1cccnc1Oc1cccc(C(F)(F)F)c1 [DFF, N-(2,4-difluorophenyl)-2-[3-(trifluoromethyl)phenoxy]-3-pyridinecarboxamide] | weak control | weak control | 

Source: patent US20240008480A1, “MICROCAPSULE WITH ACETAMIDES AND DIFLUFENICAN” (MONSANTO TECHNOLOGY LLC, priority 2020, published 2024)
